Values quoted from earlier work as cited in EP0305400B1, “A COMPOSITION HAVING REDUCED NEPHROTOXICITY COMPRISING A FATTY ACID CONTAINING COMPONENT AND CYCLOSPORINE” (BRIGHAM AND WOMEN'S HOSPITAL, priority 1986, dated 1987).

Test system: Tx synthetase
Conditions: rats treated with CSA

Cc1c(Cn2ccnc2)c2ccccc2n1CCC(=O)O [UK-38,485]
glomerular filtration rate (GFR): improved | urinary TxB2 levels: comparable to control levels
